Where only a bound is given, the exact number is not on record here.

Consider 20 compounds from patent US9796711B2, “Substituted pyrazolo[3,4-b]pyridin-6-carboxylic acids and method of use” (AbbVie S.àr.l., priority 2015, dated 2017).

Experiment [1] addresses T1, ΔF508-CFTR (Homo sapiens, UniProt P13569, DEL508-508).
T1 construct: host or cells: CFBE41o-, doxycycline-inducible
Description: CFTR cell surface levels using HRP-tagged ΔF508-CFTR expressing CFBE cells, intrinsic corrector capacity. The class given is cell-based. The note with it: for EC50: read-out: EC50. In short, it runs like this: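 Here the cells express ΔF508-CFTR with horseradish peroxidase inserted in extracellular loop 4, so only rescued channel at the surface gives luminescent signal. Compounds act on their own, 20 h at the reduced temperature of 33 °C; values are percent activity relative to DMSO and a 3 μM corrector.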

Experiment [2] concerns the target T1, ΔF508-CFTR. Description: CFTR cell surface levels using HRP-tagged ΔF508-CFTR expressing CFBE cells, in the presence of a co-corrector. The class given is cell-based. The note with it: HRP-tagged ΔF508-CFTR expressing CFBE cells, in the presence of 3 μM co-corrector; for EC50: read-out: EC50. In short, it runs like this: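 Cells were seeded with 0.5 μg/mL doxycycline and held 68 h at 37 °C. Test compounds plus 3 μM co-corrector (final 0.1% DMSO) were then added for 20 h at 33 °C. Washed cells received HRP substrate, and luminescence was normalized between DMSO and 3 μM co-corrector controls.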

[3] abbreviates: HRP-tagged ΔF508-CFTR expressing CFBE cells, intrinsic corrector capacity (no co-corrector), 33° C., 20 hours.
Setting [4] is: HRP-tagged ΔF508-CFTR CFBE cells, compound alone (intrinsic corrector capacity), 20 hours at 33° C.
Setting [5] is: HRP-tagged ΔF508-CFTR CFBE41o- cells, compounds alone (intrinsic corrector capacity), 20 hours at 33° C., positive control 3 μM corrector.
[6] abbreviates: HRP-tagged ΔF508-CFTR CFBE41o- cells, compounds alone (intrinsic corrector capacity), 20 hours at 33° C.

T1 sequence (P13569 with tags, fused parts or gaps DEL508-508): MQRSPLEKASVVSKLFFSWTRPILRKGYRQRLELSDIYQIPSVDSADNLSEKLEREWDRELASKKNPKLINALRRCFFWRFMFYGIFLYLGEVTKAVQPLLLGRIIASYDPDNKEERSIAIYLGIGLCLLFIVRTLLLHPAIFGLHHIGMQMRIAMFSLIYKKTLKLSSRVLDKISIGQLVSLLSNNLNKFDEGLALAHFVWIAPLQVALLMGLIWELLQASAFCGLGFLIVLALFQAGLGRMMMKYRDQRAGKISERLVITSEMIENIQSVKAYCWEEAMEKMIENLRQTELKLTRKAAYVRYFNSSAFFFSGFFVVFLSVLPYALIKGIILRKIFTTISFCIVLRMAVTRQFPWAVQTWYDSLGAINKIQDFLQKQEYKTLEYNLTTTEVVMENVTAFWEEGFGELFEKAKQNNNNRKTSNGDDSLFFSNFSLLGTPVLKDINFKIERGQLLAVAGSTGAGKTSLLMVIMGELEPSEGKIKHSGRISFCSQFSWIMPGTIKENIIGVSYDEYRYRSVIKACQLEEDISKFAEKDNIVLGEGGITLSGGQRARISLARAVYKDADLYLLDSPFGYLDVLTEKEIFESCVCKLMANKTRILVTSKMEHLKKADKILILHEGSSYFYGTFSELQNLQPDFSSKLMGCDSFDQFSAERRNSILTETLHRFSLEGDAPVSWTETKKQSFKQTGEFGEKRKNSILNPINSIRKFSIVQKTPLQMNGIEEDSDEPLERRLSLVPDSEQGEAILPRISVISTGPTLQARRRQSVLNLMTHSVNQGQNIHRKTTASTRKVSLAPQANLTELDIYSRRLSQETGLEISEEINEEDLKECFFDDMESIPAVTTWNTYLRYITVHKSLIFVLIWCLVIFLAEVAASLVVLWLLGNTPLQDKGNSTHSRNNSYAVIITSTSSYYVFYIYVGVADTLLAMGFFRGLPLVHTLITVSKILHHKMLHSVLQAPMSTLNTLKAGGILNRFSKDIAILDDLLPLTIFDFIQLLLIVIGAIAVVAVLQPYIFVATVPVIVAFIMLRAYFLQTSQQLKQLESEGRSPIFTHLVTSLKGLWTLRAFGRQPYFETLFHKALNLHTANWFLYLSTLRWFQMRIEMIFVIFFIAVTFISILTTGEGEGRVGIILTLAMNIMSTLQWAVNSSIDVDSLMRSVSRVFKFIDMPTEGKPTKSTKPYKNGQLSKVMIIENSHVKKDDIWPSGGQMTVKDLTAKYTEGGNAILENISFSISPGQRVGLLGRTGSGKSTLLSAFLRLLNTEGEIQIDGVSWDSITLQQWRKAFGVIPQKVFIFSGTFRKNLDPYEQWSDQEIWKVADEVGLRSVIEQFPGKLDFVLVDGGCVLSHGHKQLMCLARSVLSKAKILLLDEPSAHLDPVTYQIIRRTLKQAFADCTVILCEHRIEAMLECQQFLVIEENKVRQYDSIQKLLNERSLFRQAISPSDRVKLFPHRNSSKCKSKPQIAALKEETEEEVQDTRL

A word on the EC50: it is the midpoint of the concentration-response curve. For `O=C(O)c1cc(N2CC3(CCC3)C2)c2c(C3CCC3)nn(-c3ccccc3)c2n1` [compound 426, 4-(2-azaspiro[3.3]heptan-2-yl)-3-cyclobutyl-1-phenyl-1H-pyrazolo[3,4-b]pyridine-6-carboxylic acid], the “% Activation” value on ΔF508-CFTR [1] (setting [3]) was determined as 76.06%; at ΔF508-CFTR [2], 253.5%. Moreover, the EC50 came out at 998 nM at ΔF508-CFTR [1] (setting [3]) and 897 nM on ΔF508-CFTR [2].

Consider `CN1CCC2(CC1)CCN(c1cc(C(=O)O)nc3c1c(C1CCC1)nn3-c1ccc(F)cc1)CC2` [compound 928, 3-cyclobutyl-1-(4-fluorophenyl)-4-(9-methyl-3,9-diazaspiro[5.5]undecan-3-yl)-1H-pyrazolo[3,4-b]pyridine-6-carboxylic acid], for which, on ΔF508-CFTR [1] (setting [4]), the “% Activation” value was found to be 284.7% and the EC50 turned out to be 4030 nM. Besides, on ΔF508-CFTR [2], the “% Activation” value was found to be 362.2% and the EC50 was 2410 nM.

In the case of `O=C(O)c1cc(OCC2CCCCC2)c2c(C3CCC3)nn(-c3ccccc3)c2n1` [compound 407, 3-cyclobutyl-4-(cyclohexylmethoxy)-1-phenyl-1H-pyrazolo[3,4-b]pyridine-6-carboxylic acid], at ΔF508-CFTR [1] (setting [3]), the “% Activation” value is on record as 125.25% and the EC50 was 925 nM. Also, at ΔF508-CFTR [2], the “% Activation” value is 323.95% and the EC50 worked out at 662 nM.

For the compound `COCCC1(COc2cc(C(=O)O)nc3c2c(C2CCC2)nn3-c2ccccc2)CC1` [compound 485, 3-cyclobutyl-4-{[1-(2-methoxyethyl)cyclopropyl]methoxyl}-1-phenyl-1H-pyrazolo[3,4-b]pyridine-6-carboxylic acid], at ΔF508-CFTR [1] (setting [3]), the “% Activation” value worked out at 107.5% and the EC50 amounted to 1070 nM. Moreover, at ΔF508-CFTR [2], the “% Activation” value came out at 242.05% and the concentration for a half-maximal effect (EC50) amounted to 335 nM.

For the compound `O=C(O)c1cc(OCCN2CCCC2)c2c(C3CCC3)nn(-c3ccccc3)c2n1` [compound 628, 3-cyclobutyl-1-phenyl-4-[2-(pyrrolidin-1-yl)ethoxy]-1H-pyrazolo[3,4-b]pyridine-6-carboxylic acid], the “% Activation” value on ΔF508-CFTR [1] (setting [3]) is 67.69%; on ΔF508-CFTR [2], 217.7%. The EC50 at ΔF508-CFTR [1] (setting [3]) was 3180 nM; at ΔF508-CFTR [2], 3330 nM.

For the compound `O=C(O)c1cc(N2CC[C@H](F)C2)c2c(C3CCC3)nn(-c3ccccc3)c2n1` [compound 527, 3-cyclobutyl-4-[(3S)-3-fluoropyrrolidin-1-yl]-1-phenyl-1H-pyrazolo[3,4-b]pyridine-6-carboxylic acid], at ΔF508-CFTR [1] (setting [3]), the “% Activation” value is on record as 100.1% and the EC50 was 1160 nM. At ΔF508-CFTR [2], the “% Activation” value is 291.2% and the EC50 stood at 1030 nM.

As for `CN1CCCN(CCOc2cc(C(=O)O)nc3c2c(C2CCC2)nn3-c2ccccc2)CC1` [compound 644, 3-cyclobutyl-4-[2-(4-methyl-1,4-diazepan-1-yl)ethoxy]-1-phenyl-1H-pyrazolo[3,4-b]pyridine-6-carboxylic acid], on ΔF508-CFTR [1] (setting [3]), the “% Activation” value is recorded as 42.75% and the EC50 came to 3330 nM. At ΔF508-CFTR [2], the “% Activation” value is 196.3% and the EC50 came to 3330 nM.

Consider `Cc1nn(-c2ccccc2)c2nc(C(=O)O)cc(-c3ccc(N4CC(C)(C)C4)cc3)c12` [compound 73, 4-[4-(3,3-dimethylazetidin-1-yl)phenyl]-3-methyl-1-phenyl-1H-pyrazolo[3,4-b]pyridine-6-carboxylic acid], for which the figures for the “% Activation” value at ΔF508-CFTR [1] (setting [5]) and on ΔF508-CFTR [2] were 110.1% and 303.9%, respectively. Further, the EC50 on ΔF508-CFTR [1] (setting [6]) amounted to 3170 nM; on ΔF508-CFTR [2], 3250 nM.

As to `O=C(O)c1cc(N2CC[C@H](O)[C@H](F)C2)c2c(C3CCC3)nn(-c3ccccc3)c2n1` [compound 509, 3-cyclobutyl-4-[(3R,4S)-3-fluoro-4-hydroxypiperidin-1-yl]-1-phenyl-1H-pyrazolo[3,4-b]pyridine-6-carboxylic acid], at ΔF508-CFTR [1] (setting [3]), the “% Activation” value stood at 123.6% and the EC50 turned out to be 1240 nM. Also, at ΔF508-CFTR [2], the “% Activation” value is 344.6% and the EC50 came to 1670 nM.

For the compound `O=C(O)c1cc(OCCC2CC(F)(F)C2)c2c(C3CCC3)nn(-c3ccccc3)c2n1` [compound 477, 3-cyclobutyl-4-[2-(3,3-difluorocyclobutyl)ethoxy]-1-phenyl-1H-pyrazolo[3,4-b]pyridine-6-carboxylic acid], the “% Activation” value at ΔF508-CFTR [1] (setting [3]) was determined as 97.78%; at ΔF508-CFTR [2], 266.3%. Besides, the EC50 on ΔF508-CFTR [1] (setting [3]) was found to be 1020 nM; at ΔF508-CFTR [2], 501 nM.

Regarding `Cc1nn(-c2ccccc2)c2nc(C(=O)O)cc(N3CCN(C(=O)N4CCOCC4)CC3)c12` [compound 322, 3-methyl-4-[4-(morpholine-4-carbonyl)piperazin-1-yl]-1-phenyl-1H-pyrazolo[3,4-b]pyridine-6-carboxylic acid], the “% Activation” value turned out to be 12.25% at ΔF508-CFTR [1] (setting [5]) and 154.55% on ΔF508-CFTR [2]. In addition, the EC50 at ΔF508-CFTR [1] (setting [6]) is > 10000 nM; at ΔF508-CFTR [2], 3340 nM.

In the case of `COCCN(C)c1cccc(-n2nc(C(C)C)c3c(-c4ccc(N5CCOCC5)cc4)cc(C(=O)O)nc32)c1` [compound 172, 1-{3-[(2-methoxyethyl)(methyl)amino]phenyl}-4[4-(morpholin-4-yl)phenyl]-3-(propan-2-yl)-1H-pyrazolo[3,4-b]pyridine-6-carboxylic acid], the “% Activation” value on ΔF508-CFTR [1] (setting [5]) is listed as 339.33%; at ΔF508-CFTR [2], 513.1%. Further, the EC50 on ΔF508-CFTR [1] (setting [6]) amounted to 615 nM; at ΔF508-CFTR [2] it was 480 nM.

With `CO[C@@H]1CCN(c2cc(C(=O)O)nc3c2c(C)nn3-c2ccccc2)C1` [compound 295, 4-[(3R)-3-methoxypyrrolidin-1-yl]-3-methyl-1-phenyl-1H-pyrazolo[3,4-b]pyridine-6-carboxylic acid], the figures for the “% Activation” value on ΔF508-CFTR [1] (setting [5]) and at ΔF508-CFTR [2] were 46.475% and 172.1%, respectively. Further, the EC50 at ΔF508-CFTR [1] (setting [6]) and at ΔF508-CFTR [2] was 2510 nM each time.

Regarding `CC1(C)CN(C2CCN(c3cc(C(=O)O)nc4c3c(C3CCC3)nn4-c3ccc(F)cc3)CC2)CCO1` [compound 876, 3-cyclobutyl-4-[4-(2,2-dimethylmorpholin-4-yl)piperidin-1-yl]-1-(4-fluorophenyl)-1H-pyrazolo[3,4-b]pyridine-6-carboxylic acid], on ΔF508-CFTR [1] (setting [3]), the “% Activation” value was 324.4% and the EC50 is 301 nM. On ΔF508-CFTR [2], the “% Activation” value amounted to 562.35% and the EC50 is 267 nM.

With `Cc1cccc(-n2nc(C(C)C)c3c(N4CCC(CF)CC4)cc(C(=O)O)nc32)c1` [compound 348, 4-[4-(fluoromethyl)piperidin-1-yl]-1-(3-methylphenyl)-3-(propan-2-yl)-1H-pyrazolo[3,4-b]pyridine-6-carboxylic acid], the results for the “% Activation” value on ΔF508-CFTR [1] (setting [5]) and at ΔF508-CFTR [2] were 217.2% and 410.3%, respectively. In addition, the EC50 at ΔF508-CFTR [1] (setting [6]) stood at 553 nM; at ΔF508-CFTR [2], 370 nM.

As for `Cc1nn(-c2ccccc2)c2nc(C(=O)O)cc(O[C@H]3C[C@H](N4CCCCC4)C3)c12` [compound 345, 3-methyl-1-phenyl-4-{[trans-3-(piperidin-1-yl)cyclobutyl]oxy}-1H-pyrazolo[3,4-b]pyridine-6-carboxylic acid], the “% Activation” value on ΔF508-CFTR [1] (setting [5]) was 23.411%; on ΔF508-CFTR [2], 129.4%. The EC50 at ΔF508-CFTR [1] (setting [6]) and at ΔF508-CFTR [2] was 4170 nM each time.

Turning to `CC(C)c1nn(C2CCCCC2)c2nc(C(=O)O)cc(-c3cnc(N(C)C)nc3)c12` [compound 62, 1-cyclohexyl-4-[2-(dimethylamino)pyrimidin-5-yl]-3-(propan-2-yl)-1H-pyrazolo[3,4-b]pyridine-6-carboxylic acid], the “% Activation” value on ΔF508-CFTR [1] (setting [5]) was 159.65%; at ΔF508-CFTR [2] it was 349.9%. The figures for the EC50 at ΔF508-CFTR [1] (setting [6]) and on ΔF508-CFTR [2] were 2630 nM and 1690 nM, respectively.

In the case of `O=C(O)c1cc(N2CCC3C(CCN3C3CCOCC3)C2)c2c(C3CCC3)nn(-c3ccc(F)cc3)c2n1` (centres unmarked) [compound 903, 3-cyclobutyl-1-(4-fluorophenyl)-4-[1-(oxan-4-yl)octahydro-5H-pyrrolo[3,2-c]pyridin-5-yl]-1H-pyrazolo[3,4-b]pyridine-6-carboxylic acid], on ΔF508-CFTR [1] (setting [3]), the “% Activation” value is 275.8% and the EC50 came to 331 nM. In addition, at ΔF508-CFTR [2], the “% Activation” value amounted to 480.55% and the EC50 is 108 nM.

As to `CC(C)c1nn(-c2cccc(N3CCOCC3)c2)c2nc(C(=O)O)cc(-c3ccc(N(C)C4CCOCC4)cc3)c12` [compound 208, 4-{4-[methyl(oxan-4-yl)amino]phenyl}-1-[3-(morpholin-4-yl)phenyl]-3-(propan-2-yl)-1H-pyrazolo[3,4-b]pyridine-6-carboxylic acid], the “% Activation” value on ΔF508-CFTR [1] (setting [5]) is listed as 413.75%; at ΔF508-CFTR [2], 673.2%. Further, the concentration giving a half-maximal response (EC50) on ΔF508-CFTR [1] (setting [6]) came to 603 nM; at ΔF508-CFTR [2] it was 647 nM.

On to `CC(C)c1nn(-c2cccc(N3CCOCC3)c2)c2nc(C(=O)O)cc(-c3cnc(N(C)C4CCOCC4)nc3)c12` [compound 231, 4-{2-[methyl(oxan-4-yl)amino]pyrimidin-5-yl}-1-[3-(morpholin-4-yl)phenyl]-3-(propan-2-yl)-1H-pyrazolo[3,4-b]pyridine-6-carboxylic acid], for which the “% Activation” value is recorded as 419% at ΔF508-CFTR [1] (setting [5]) and 625.45% on ΔF508-CFTR [2]. Further, the results for the EC50 on ΔF508-CFTR [1] (setting [6]) and at ΔF508-CFTR [2] were 733 nM and 570 nM, respectively.
